Assay results taken from US10201543B2, “Therapeutically active compounds and their methods of use” (Agios Pharmaceuticals, Inc., priority 2015, dated 2019).

How the values were obtained:
human CYP3A4 = assay: CYP induction, CYP3A4
CYP1A2 = assay: CYP induction, CYP1A2; format: in vitro ADME
CYP2B6 = assay: CYP induction, CYP2B6
[1] = tested on: TF-1 IDH2 (R140Q) mutant cells; assay: EPO-induced differentiation in TF-1 IDH2 (R140Q) mutant cells; format: cell-based; settings: when 2-HG levels fall below 1 mM
TF-1 IDH2 (R140Q) cells [2] = assay: Vimentin expression in TF-1 IDH2 (R140Q) cells; format: cell-based; settings: 7 days; 2-HG levels below 1 mM, dose >200 nM
TF-1 IDH2 (R140Q) cells [3] = assay: GM-CSF-independent growth of TF-1 IDH2 (R140Q) cells; format: cell-based; settings: 1 μM, 7 days
U87MG IDH2 (R140Q) tumor = assay: PK/PD in U87MG IDH2 (R140Q) mouse xenograft model; settings: 3 consecutive doses of 25 mg/kg or above, twice daily, 12 hour interval
[4] = tested on: TF-1/IDH2 (R140Q) mutant cells; assay: 2-HG levels in TF-1/IDH2 (R140Q) mutant cells; format: cell-based
Description: TF-1/IDH2 (R140Q) mutant cells are treated in vitro for 7 days with vehicle (dimethylsulfoxide; […].

[5] = tested on: AMNI7577-P2 (HuKemia model); assay: Survival in mutant positive AML mouse model (AMNI7577-P2, NOD/SCID mice); format: in vivo
[6] = tested on: primary human IDH2 (R140Q) mutant AML cells; assay: Ex vivo treatment of primary human AML blast cells; format: cell-based; settings: for percentage of blast cells: from 90%, 500, 1000, 5000 nM
Source text: Cells are counted at Days 3, 6, 9, and 13 and normalized to DMSO control.

Nc1nc(Nc2ccnc(C(F)(F)F)c2)nc(-c2cccc(C(F)(F)F)n2)n1 [compound 2, 6-(6-(trifluoromethyl)pyridin-2-yl)-N2-(2-(trifluoromethyl)pyridin-4-yl)-1,3,5-triazine-2,4-diamine]
induction of human CYP3A4 (human CYP3A4): weak inducers
induction of CYP1A2 (CYP1A2): not observed
induction of CYP2B6 (CYP2B6): not observed

CC(C)(O)CNc1nc(Nc2ccnc(C(F)(F)F)c2)nc(-c2cccc(C(F)(F)F)n2)n1 [compound 3, 2-Methyl-1-[(4-[6-(trifluoromethyl)pyridin-2-yl]-6-{[2-(trifluoromethyl)pyridin-4-yl]amino}-1,3,5-triazin-2-yl)amino]propan-2-ol]
EPO-induced expression of hemoglobin gamma 1/2 and KLF-1 [1]: restores
vimentin expression induced by IDH2 (R140Q) (TF-1 IDH2 (R140Q) cells [2]): reduced to baseline levels
GM-CSF independent growth (TF-1 IDH2 (R140Q) cells [3]): reversed
tumor 2-HG levels (U87MG IDH2 (R140Q) tumor): decrease to baseline
intracellular levels of 2-HG ([4]; 5 μM, 7 days, 15.5 mM with DMSO): 0.08 mM
inhibition at 1 µM ([4]; 168 h, read-out: 2-HG production inhibited): > 99%
IC90 ([4]; 168 h, read-out: inhibitory concentration, 90% (IC90) for 2-HG inhibition): 160 nM
IC50 ([4]; 168 h, read-out: intracellular IC50 for 2-HG inhibition): 16 nM
Survival at study termination ([5]; 45 mg/kg PO/BID, Day 48-84): all 9 mice survived
survival in comparison to cytarabine ([5]; 5, 15, 45 mg/kg): dose dependent survival advantage
leukemia burden and differentiation ([5]; all treated animals): dose dependent decrease in leukemia and evidence of normal differentiation
population of more differentiated cells (metamyelocytes) ([6]; 9 days ex vivo): clear increase
percentage of blast cells ([6]; Day 6): 55%
percentage of blast cells ([6]; Day 9): 40%
intracellular 2-HG ([6]; ex vivo treatment): decrease
